Data: the NIST ThermoML archive (doi:10.1016/j.jct.2010.04.018)

Test: cn = amount concentration of the nth substance listed, in mol/dm3
Conditions: 101 kPa, Liquid; for speed of sound: Sing-around technique in a fixed-path interferometer; for mass density: Vibrating tube method

Oc1ccccc1O [1,2-benzenediol] + O
Conditions	mass density, 283.15 K [kg/m3]	mass density, 293.15 K [kg/m3]	mass density, 298.15 K [kg/m3]	mass density, 303.15 K [kg/m3]	mass density, 313.15 K [kg/m3]	speed of sound, 283.15 K [m/s]	speed of sound, 293.15 K [m/s]	speed of sound, 298.15 K [m/s]	speed of sound, 303.15 K [m/s]	speed of sound, 313.15 K [m/s]
c1 = 0.0354	1000.62	999.093	997.92	996.509	993.058	1449.9	1484.1	1498.2	1510.5	1529.9
c1 = 0.1697	1003.9	1002.24	1001.01	999.543	995.992	1457.9	1490.6	1504	1515.7	1534.1
c1 = 0.346	1008.13	1006.3	1004.99	1003.46	999.774	1467.9	1498.7	1511.4	1522.2	1539.2
c1 = 0.4721	1011.09	1009.14	1007.78	1006.19	1002.41	1474.5	1504.1	1516.2	1526.6	1542.6
c1 = 0.5008	1011.78	1009.79	1008.42	1006.82	1003.02	1476.5	1505.4	1517.3	1527.5	1543.4
c1 = 0.6589	1015.4	1013.26	1011.82	1010.15	1006.23	1484	1511.8	1523	1532.7	1547.3
c1 = 0.7524	1017.53	1015.29	1013.81	1012.11	1008.12	1488.5	1515.4	1526.3	1535.5	1549.5

Oc1cccc(O)c1 [1,3-benzenediol] + O
Conditions	mass density, 283.15 K [kg/m3]	mass density, 293.15 K [kg/m3]	mass density, 298.15 K [kg/m3]	mass density, 303.15 K [kg/m3]	mass density, 313.15 K [kg/m3]	speed of sound, 283.15 K [m/s]	speed of sound, 293.15 K [m/s]	speed of sound, 298.15 K [m/s]	speed of sound, 303.15 K [m/s]	speed of sound, 313.15 K [m/s]
c1 = 0.0479	1000.93	999.387	998.206	996.776	993.338	1449.5	1483.7	1497.8	1510	1529.5
c1 = 0.101	1002.08	1000.51	999.325	997.875	994.393	1451.5	1485.2	1499.1	1511.2	1530.3
c1 = 0.1786	1003.79	1002.17	1000.95	999.476	995.941	1454.3	1487.3	1500.9	1512.8	1531.4
c1 = 0.3402	1007.38	1005.58	1004.28	1002.77	999.12	1459.9	1491.6	1504.7	1515.9	1533.7
c1 = 0.4522	1009.8	1007.9	1006.56	1005	1001.29	1463.5	1494.5	1507.1	1518	1535.2
c1 = 0.5654	1012.22	1010.22	1008.84	1007.25	1003.46	1467.2	1497.3	1509.6	1520.1	1536.6
c1 = 0.7623	1016.36	1014.19	1012.74	1011.08	1007.17	1473.5	1502	1513.7	1523.7	1539
